# In patent US20070031504A1, “Microdevices comprising nanocapsules for controlled delivery of drugs and method of manufacturing same” (MIV Therapeutics Inc., priority 2005, published 2007):
# Assay: Solubility of paclitaxel in the hydrophilic liquid core solvents
# Details: solvents such as DMSO and DENA
compound,measurement,value
CC(=O)O[C@H]1C(=O)[C@@]2(C)[C@H]([C@H](OC(=O)c3ccccc3)[C@]3(O)C[C@H](OC(=O)[C@H](O)[C@@H](NC(=O)c4ccccc4)c4ccccc4)C(C)=C1C3(C)C)[C@]1(OC(C)=O)CO[C@@H]1C[C@@H]2O [paclitaxel],concentration at which the drug may be dissolved in liquid core,10-60 weight percent
